Test results published in the supplement of paper PMC10307832.

Columns and labels:
Assay in all cases: relative viability (nuclei count vs DMSO), 5 days (fraction); higher = more cells survive
Imatinib + Linsitinib = compound: Cc1ccc(NC(=O)c2ccc(CN3CCN(C)CC3)cc2)cc1Nc1nccc(-c2cccnc2)n1 [Imatinib] + C[C@]1(O)C[C@@H](c2nc(-c3ccc4ccc(-c5ccccc5)nc4c3)c3c(N)nccn32)C1 [Linsitinib] (partner 1 µM)
Outline: (§1)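 Lung cancer cell lines were pin-tool dosed in 1536-well plates on the day after seeding, with either a lone drug or a fixed anchor-drug dose plus five library-drug doses (not always all listed) in √10 steps. Nuclei were counted on 4× images after 5 days. Relative viability is the ratio of treated-well to vehicle-well nuclei counts, with each value a median of duplicate plates.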

Imatinib + Olaparib = compound: Cc1ccc(NC(=O)c2ccc(CN3CCN(C)CC3)cc2)cc1Nc1nccc(-c2cccnc2)n1 [Imatinib] + O=C(c1cc(Cc2n[nH]c(=O)c3ccccc23)ccc1F)N1CCN(C(=O)C2CC2)CC1 [Olaparib] (partner 8 µM)
Outline: as §1

Imatinib + Navitoclax = compound: Cc1ccc(NC(=O)c2ccc(CN3CCN(C)CC3)cc2)cc1Nc1nccc(-c2cccnc2)n1 [Imatinib] + CC1(C)CCC(c2ccc(Cl)cc2)=C(CN2CCN(c3ccc(C(=O)NS(=O)(=O)c4ccc(N[C@H](CCN5CCOCC5)CSc5ccccc5)c(S(=O)(=O)C(F)(F)F)c4)cc3)CC2)C1 [Navitoclax] (partner 0.5 µM)
Outline: as §1

Imatinib + Pemetrexed = compound: Cc1ccc(NC(=O)c2ccc(CN3CCN(C)CC3)cc2)cc1Nc1nccc(-c2cccnc2)n1 [Imatinib] + Nc1nc2[nH]cc(CCc3ccc(C(=O)N[C@@H](CCC(=O)O)C(=O)O)cc3)c2c(=O)[nH]1 [Pemetrexed] (partner 0.2 µM)
Outline: as §1

| Cell Line | relative viability (Imatinib + Linsitinib; first compound 0.02 µM) | relative viability (Imatinib + Linsitinib; first compound 0.06325 µM) | relative viability (Imatinib + Linsitinib; first compound 0.2 µM) | relative viability (Imatinib + Linsitinib; first compound 0.6325 µM) | relative viability (Imatinib + Linsitinib; first compound 2 µM) | relative viability (Imatinib + Olaparib; first compound 0.02 µM) | relative viability (Imatinib + Olaparib; first compound 0.06325 µM) | relative viability (Imatinib + Olaparib; first compound 0.2 µM) | relative viability (Imatinib + Olaparib; first compound 0.6325 µM) | relative viability (Imatinib + Olaparib; first compound 2 µM) | relative viability (Imatinib + Navitoclax; first compound 0.02 µM) | relative viability (Imatinib + Navitoclax; first compound 0.06325 µM) | relative viability (Imatinib + Navitoclax; first compound 0.2 µM) | relative viability (Imatinib + Navitoclax; first compound 0.6325 µM) | relative viability (Imatinib + Navitoclax; first compound 2 µM) | relative viability (Imatinib + Pemetrexed; first compound 0.02 µM) | relative viability (Imatinib + Pemetrexed; first compound 0.06325 µM) | relative viability (Imatinib + Pemetrexed; first compound 2 µM) | relative viability (Imatinib + Pemetrexed; first compound 0.2 µM) | relative viability (Imatinib + Pemetrexed; first compound 0.6325 µM) |
| --- | --- | --- | --- | --- | --- | --- | --- | --- | --- | --- | --- | --- | --- | --- | --- | --- | --- | --- | --- | --- |
| NCI-H23 | 0.535 | 0.641 | 0.588 | 0.546 | 0.598 | 0.384 | 0.287 | 0.32 | 0.376 | 0.32 | 1.04 | 0.916 | 1.1 | 0.738 | 0.87 | 0.692 | 0.69 | 0.571 | – | – |
| NCI-H322M | 1.01 | 0.895 | – | 0.891 | 0.981 | 0.821 | 0.857 | 0.734 | 0.678 | 0.807 | 1.21 | 1.26 | – | 1.17 | 1.13 | 0.677 | 0.613 | 0.63 | 0.63 | 0.563 |
| NCI-H441 | 0.644 | 0.485 | 0.573 | 0.47 | 0.546 | 0.577 | 0.793 | 0.554 | 0.6 | 0.635 | 0.647 | 0.675 | 0.606 | 0.612 | 0.572 | 0.278 | 0.262 | 0.24 | 0.27 | 0.265 |
| NCI-H460 | 1.11 | – | 0.964 | 0.801 | 1.02 | 0.515 | 0.431 | 0.402 | 0.462 | 0.396 | 1.65 | 1.58 | 1.96 | 1.17 | 1.3 | 0.0572 | 0.0576 | 0.0654 | 0.0551 | 0.0623 |
| NCI-H520 | 1.09 | 1.48 | 1.02 | 1.14 | 0.988 | 0.368 | 0.356 | 0.305 | 0.301 | 0.371 | 1.24 | 1.14 | 1.18 | 1.04 | 1.12 | 0.556 | 0.768 | 0.733 | 0.709 | 0.716 |
| NCI-H596 | 1.09 | 0.958 | 1.1 | – | 0.969 | 0.648 | 0.811 | 0.681 | 0.665 | 0.747 | 1.07 | 0.861 | 1 | 0.876 | – | 0.497 | 0.507 | 0.487 | 0.509 | 0.466 |
| NCI-H647 | 1.43 | 1.44 | 1.25 | 1.13 | 1.18 | 0.803 | 0.67 | 0.792 | 0.588 | 0.495 | 1.42 | 1.36 | 1.14 | 1.12 | 1.17 | 0.18 | 0.183 | 0.158 | 0.192 | 0.202 |
| NCI-H838 | 1.12 | 1.37 | 1.3 | 1.03 | 1.02 | 0.88 | 0.988 | – | 0.883 | 0.852 | 1.34 | 1.54 | 1.34 | 1.14 | 1.28 | 0.249 | 0.26 | 0.247 | 0.251 | 0.253 |
